“And” between values parts separate entries of the source, which are not always exact repeats. Equal entries are not always repeated. Where two headings read alike, the source gives them in different places.
How the values were obtained:
[1] = tested on: mouse L929 fibrosarcoma cells; test: necroptosis assay in L929 cells; format: cell-based; details: viability by cellular ATP (Cell Titer-Glo), read-out: pIC50, inhibited necrosis in L929 cells (converted)
Method: The efficacy of RIP1 inhibitors can be tested […] in vitro using a human monocytic leukemia U937 or mouse L929 fibrosarcoma cells in a necroptosis assay. As determined using the method described in S. He et al., Cell, 137(6):1100-1111 (2009) and International Patent Appln. No. PCT/IB2014/059004, now, International Patent Appln. Pub.
Viability was measured by quantitating cellular levels of ATP using the Cell Titer-Glo kit. All data are means±standard deviation of the mean.

RIP1 kinase = target: T1, RIP1 kinase (Homo sapiens, UniProt Q13546); test: fluorescent polarization based binding assay; details: mean of a minimum of 2 experiments
T1 sequence (Q13546 1-375 limits assumed): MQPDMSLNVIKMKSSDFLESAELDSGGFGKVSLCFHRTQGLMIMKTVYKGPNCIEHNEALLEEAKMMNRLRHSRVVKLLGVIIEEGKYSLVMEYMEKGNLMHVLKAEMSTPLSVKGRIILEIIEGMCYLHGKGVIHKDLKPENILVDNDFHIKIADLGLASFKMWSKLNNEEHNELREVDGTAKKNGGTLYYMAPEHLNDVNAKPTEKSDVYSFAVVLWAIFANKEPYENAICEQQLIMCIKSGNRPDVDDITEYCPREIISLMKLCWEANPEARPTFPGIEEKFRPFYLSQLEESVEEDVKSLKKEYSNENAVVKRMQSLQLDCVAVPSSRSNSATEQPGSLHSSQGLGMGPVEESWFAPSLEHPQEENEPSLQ
Text: A fluorescent polarization based binding assay was used to assess the activity of the compounds of this invention, the details of which are disclosed in International Patent Appln. No. PCT/IB2014/059004, now, International Patent Appln. Pub.

[2] = tested on: human monocytic leukemia U937 cells; test: necroptosis assay in U937 cells; format: cell-based; details: viability by cellular ATP (Cell Titer-Glo); for IC50: Homo sapiens, U-937, U937 cells, read-out: pIC50, inhibited necrosis in U937 cells (converted)
Method in brief: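 Necroptosis was induced in human U937 or mouse L929 cells, and viability was quantified as cellular ATP with Cell Titer-Glo. Data are means±standard deviation.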

IC50 (RIP1 kinase)	SMILES	IC50 ([1]; L929 cells) [nM]	IC50 [2] [nM]	IC50 ([1]; L929, L929 cells) [nM]	pIC50, inhibited necrosis in U937 cells ([2]; U937 cells)
1 to 31.6 nM and 1 to 10 nM	N#Cc1cc(N2CCC(C(=O)N3N=CC[C@H]3c3ccccc3)CC2)ncn1 [Example 14, (S)-6-(4-(5-phenyl-4,5-dihydro-1H-pyrazole-1-carbonyl)piperidin-1-yl)pyrimidine-4-carbonitrile]	1 to 100	1 to 100	–	–
1 to 31.6 nM and 1 to 10 nM	Nc1nc(N2CCC(C(=O)N3N=CC[C@H]3c3cc(F)cc(F)c3)CC2)ncc1F [Example 81, (S)-(1-(4-amino-5-fluoropyrimidin-2-yl)piperidin-4-yl)(5-(3,5-difluorophenyl)-4,5-dihydro-1H-pyrazol-1-yl)methanone]	1 to 100	1 to 100	–	–
1 to 31.6 nM and 1 to 10 nM	NC(=O)c1ccnc(N2CCC(C(=O)N3N=CC[C@H]3c3ccccc3)CC2)n1 [Example 28, (S)-2-(4-(5-phenyl-4,5-dihydro-1H-pyrazole-1-carbonyl)piperidin-1-yl)pyrimidine-4-carboxamide]	1 to 100	1 to 100	–	–
–	O=C(C1CCN(c2nccc(SCc3ccccc3)n2)CC1)N1N=CC[C@H]1c1ccccc1 [Example 1, (S)-(1-(4-(benzylthio)pyrimidin-2-yl)piperidin-4-yl)(5-phenyl-4,5-dihydro-1H-pyrazol-1-yl)methanone]	1 to 100	1 to 100	–	–
1 to 31.6 nM and 1 to 10 nM	N#Cc1cc(N2CCC(C(=O)N3N=CC[C@H]3c3cc(F)ccc3F)CC2)ncn1 [Example 104, (S)-6-(4-(5-(2,5-difluorophenyl)-4,5-dihydro-1H-pyrazole-1-carbonyl)piperidin-1-yl)pyrimidine-4-carbonitrile]	1 to 100	1 to 100	–	–
–	N#Cc1nccc(N2CCC(C(=O)N3N=CC[C@H]3c3cc(F)cc(F)c3)CC2)n1 [Example 89, (S)-4-(4-(5-(3,5-difluorophenyl)-4,5-dihydro-1H-pyrazole-1-carbonyl)piperidin-1-yl)pyrimidine-2-carbonitrile]	–	1 to 100	1 to 100	–
1 to 31.6 nM and 1 to 10 nM	NC(=O)c1ccnc(N2CCC(C(=O)N3N=CC[C@H]3c3cc(F)cc(F)c3)CC2)n1 [Example 83, (S)-2-(4-(5-(3,5-difluorophenyl)-4,5-dihydro-1H-pyrazole-1-carbonyl)piperidin-1-yl)pyrimidine-4-carboxamide]	1 to 100	1 to 100	–	–
~50.1 nM	O=C(O)c1ncnc(N2CCC(C(=O)N3N=CC[C@H]3c3ccccc3)CC2)c1F [Example 159, (S)-5-fluoro-6-(4-(5-phenyl-4,5-dihydro-1H-pyrazole-1-carbonyl)piperidin-1-yl)pyrimidine-4-carboxylic acid]	~251	–	–	–
1 to 31.6 nM and 1 to 10 nM	Nc1nc(N2CCC(C(=O)N3N=CC[C@H]3c3ccccc3)CC2)ncc1F [Example 27, (S)-(1-(4-amino-5-fluoropyrimidin-2-yl)piperidin-4-yl)(5-phenyl-4,5-dihydro-1H-pyrazol-1-yl)methanone]	1 to 100	1 to 100	–	–
–	Cc1nnc(N2CCC(C(=O)N3N=CC[C@H]3c3cc(F)cc(F)c3)CC2)o1 [Example 77, (S)-(5-(3,5-difluorophenyl)-4,5-dihydro-1H-pyrazol-1-yl)(1-(5-methyl-1,3,4-oxadiazol-2-yl)piperidin-4-yl)methanone]	–	–	~3160	~7.2
1 to 31.6 nM and 1 to 10 nM	NC(=O)c1ccnc(N2CCC(C(=O)N3N=CC[C@H]3c3cc(F)ccc3F)CC2)n1 [Example 102, (S)-2-(4-(5-(2,5-difluorophenyl)-4,5-dihydro-1H-pyrazole-1-carbonyl)piperidin-1-yl)pyrimidine-4-carboxamide]	1 to 100	1 to 100	–	–
–	O=C(C1CCN(c2ncc3cn[nH]c3n2)CC1)N1N=CC[C@H]1c1cc(F)cc(F)c1 [Example 86, (S)-(1-(1H-pyrazolo[3,4-d]pyrimidin-6-yl)piperidin-4-yl)(5-(3,5-difluorophenyl)-4,5-dihydro-1H-pyrazol-1-yl)methanone]	1 to 100	1 to 100	–	–
1 to 31.6 nM	CC(=O)Nc1ccnc(N2CCC(C(=O)N3N=CC[C@H]3c3cc(F)ccc3F)CC2)n1 [Example 118, (S)—N-(2-(4-(5-(2,5-difluorophenyl)-4,5-dihydro-1H-pyrazole-1-carbonyl)piperidin-1-yl)pyrimidin-4-yl)acetamide]	1 to 100	1 to 100	–	–
1 to 31.6 nM and 1 to 10 nM	N#Cc1cnc(N2CCC(C(=O)N3N=CC[C@H]3c3cc(F)cc(F)c3)CC2)nc1 [Example 92, (S)-2-(4-(5-(3,5-difluorophenyl)-4,5-dihydro-1H-pyrazole-1-carbonyl)piperidin-1-yl)pyrimidine-5-carbonitrile]	–	1 to 100	–	–
1 to 31.6 nM and 1 to 10 nM	N#Cc1nccc(N2CCC(C(=O)N3N=CC[C@H]3c3ccccc3)CC2)n1 [Example 18, (S)-4-(4-(5-phenyl-4,5-dihydro-1H-pyrazole-1-carbonyl)piperidin-1-yl)pyrimidine-2-carbonitrile]	–	1 to 100	–	–
1 to 31.6 nM	COc1nc(N)cc(N2CCC(C(=O)N3N=CC[C@H]3c3ccccc3)CC2)n1 [Example 35, (S)-(1-(6-amino-2-methoxypyrimidin-4-yl)piperidin-4-yl)(5-phenyl-4,5-dihydro-1H-pyrazol-1-yl)methanone]	–	1 to 100	–	–
1 to 31.6 nM	O=C(C1CCN(c2nccc(=O)[nH]2)CC1)N1N=CC[C@H]1c1cc(F)cc(F)c1 [Example 97, (S)-2-(4-(5-(3,5-difluorophenyl)-4,5-dihydro-1H-pyrazole-1-carbonyl)piperidin-1-yl)pyrimidin-4(3H)-one]	–	1 to 100	–	–
1 to 31.6 nM and 1 to 10 nM	N#Cc1csc(N2CCC(C(=O)N3N=CC[C@H]3c3ccccc3)CC2)n1 [Example 53, (S)-2-(4-(5-phenyl-4,5-dihydro-1H-pyrazole-1-carbonyl)piperidin-1-yl)thiazole-4-carbonitrile]	–	1 to 100	–	–
1 to 31.6 nM	COc1cncc(N2CCC(C(=O)N3N=CC[C@H]3c3ccccc3)CC2)n1 [Example 48, (S)-(1-(6-methoxypyrazin-2-yl)piperidin-4-yl)(5-phenyl-4,5-dihydro-1H-pyrazol-1-yl)methanone]	–	1 to 100	–	–
1 to 31.6 nM	CNc1nccc(N2CCC(C(=O)N3N=CC[C@H]3c3cc(F)cc(F)c3)CC2)n1 [Example 100, (S)-(5-(3,5-difluorophenyl)-4,5-dihydro-1H-pyrazol-1-yl)(1-(2-(methylamino)pyrimidin-4-yl)piperidin-4-yl)methanone]	–	1 to 100	–	–
1 to 31.6 nM	CNC(=O)c1csc(N2CCC(C(=O)N3N=CC[C@H]3c3ccccc3)CC2)n1 [Example 54, (S)-N-methyl-2-(4-(5-phenyl-4,5-dihydro-1H-pyrazole-1-carbonyl)piperidin-1-yl)thiazole-4-carboxamide]	–	1 to 100	–	–
1 to 31.6 nM and 1 to 10 nM	Nc1cc(N2CCC(C(=O)N3N=CC[C@H]3c3cc(F)cc(F)c3)CC2)ncn1 [Example 98, (S)-(1-(6-aminopyrimidin-4-yl)piperidin-4-yl)(5-(3,5-difluorophenyl)-4,5-dihydro-1H-pyrazol-1-yl)methanone]	–	1 to 100	–	–
1 to 31.6 nM and 1 to 10 nM	C#Cc1cc(N2CCC(C(=O)N3N=CC[C@H]3c3cc(F)cc(F)c3)CC2)ncn1 [Example 157, (S)-(5-(3,5-difluorophenyl)-4,5-dihydro-1H-pyrazol-1-yl)(1-(6-ethynylpyrimidin-4-yl)piperidin-4-yl)methanone]	–	1 to 100	–	–

— patent US20190345138A1, “HETEROCYCLIC AMIDES AS KINASE INHIBITORS” (GlaxoSmithKline Intellectual Property Development Limited, priority 2016, published 2019)
